Experimental data taken from patent US8952169B2 (Genentech, Inc., priority 2012, dated 2015).

Biological target: hNav1.7 (Homo sapiens (Human), UniProt Q15858)
Assay: Tritiated aryl sulfonamide binding to membranes from cells expressing hNav1.7 and the β1 subunit (competitive binding)
Conditions: membranes with hNav1.7 and β1 subunit; [3H]compound displacement, 18 h, room temperature; read-out: NaV1.7 395 Memb Binding (IC50)
Procedure: Tritiated Aryl Sulfonamide Binding to Membranes Isolated from Cells that Heterologously Express hNav1.7 and the β1 Subunit
Preparation of membranes containing recombinantly expressed sodium channels: Frozen recombinant cell pellets were thawed on ice and diluted to 4 times the cell pellet weight with ice cold 50 mM Tris HCl, pH 7.4 buffer. The cell suspensions were homogenized on ice using a motorized glass dounce homogeniser. Homogenates were further diluted 8.4 times with ice cold 50 mM Tris HCl, pH 7.4 buffer and then centrifuged at 200×g at 4° C. for 15 min. The supernatants were collected and centrifuged at 10000×g at 4° C. for 50 min. The pellets were then re-suspended in 100 mM NaCl, 20 mM Tris HCl, pH 7.4 buffer containing 1% v/v protease inhibitors (Calbiochem) and re-homogenized on ice. The homogenized membranes were then processed through a syringe equipped with a 26 gauge needle. Protein concentrations were determined by Bradford Assay and the membranes were stored at −80° C.
Radioligand Binding Studies: Saturation experiments. A representative compound of formula (I) was tritiated. Three tritiums were incorporated in place of methyl hydrogens to generate [^3H]compound. Binding of this radioligand was preformed in 5 mL borosilicate glass test tubes at room temperature. Binding was initiated by adding membranes to increasing concentrations of [^3H]compound in 100 mM NaCl, 20 mM Tris HCl, pH 7.4 buffer containing 0.01% w/v bovine serum albumin (BSA) for 18 h. Non-specific binding was determined in the presence of 1 μM unlabelled compound. After 18 h, the reactants were filtered through GF/C glass fiber filters presoaked in 0.5% w/v polyethylene imine. […] [^3H]compound bound to filters was quantified by liquid scintillation counting.
Competitive binding experiments. Binding reactions were preformed in 96-well polypropylene plates at room temperature for 18 h. In 360 μL, membranes were incubated with 100 μM [^3H]compound and increasing concentrations of Test Compound. Non-specific binding was defined in the presence of 1 μM unlabelled compound. Reactions were transferred and filtered through 96-well glass fiber/C filter plates presoaked with 0.5% polyethylene imine. The filtered reactions were washed 5 times with 200 L ice cold buffer containing 0.25% BSA. Bound radioactivity was determined by liquid scintillation counting.
Data Analysis: For saturation experiments, non-specific binding was subtracted from total binding to provide specific binding and these values were recalculated in terms of pmol ligand bound per mg protein. Saturation curves were constructed and dissociation constants were calculated using the single site ligand binding model: Beq=(Bmax*X)/(X+Kd), where Beq is the amount of ligand bound at equilibrium, Bmax is the maximum receptor density, Kd is the dissociation constant for the ligand, and X is the free ligand concentration.

Chain of hNav1.7 (Q15858 whole entry, looked up): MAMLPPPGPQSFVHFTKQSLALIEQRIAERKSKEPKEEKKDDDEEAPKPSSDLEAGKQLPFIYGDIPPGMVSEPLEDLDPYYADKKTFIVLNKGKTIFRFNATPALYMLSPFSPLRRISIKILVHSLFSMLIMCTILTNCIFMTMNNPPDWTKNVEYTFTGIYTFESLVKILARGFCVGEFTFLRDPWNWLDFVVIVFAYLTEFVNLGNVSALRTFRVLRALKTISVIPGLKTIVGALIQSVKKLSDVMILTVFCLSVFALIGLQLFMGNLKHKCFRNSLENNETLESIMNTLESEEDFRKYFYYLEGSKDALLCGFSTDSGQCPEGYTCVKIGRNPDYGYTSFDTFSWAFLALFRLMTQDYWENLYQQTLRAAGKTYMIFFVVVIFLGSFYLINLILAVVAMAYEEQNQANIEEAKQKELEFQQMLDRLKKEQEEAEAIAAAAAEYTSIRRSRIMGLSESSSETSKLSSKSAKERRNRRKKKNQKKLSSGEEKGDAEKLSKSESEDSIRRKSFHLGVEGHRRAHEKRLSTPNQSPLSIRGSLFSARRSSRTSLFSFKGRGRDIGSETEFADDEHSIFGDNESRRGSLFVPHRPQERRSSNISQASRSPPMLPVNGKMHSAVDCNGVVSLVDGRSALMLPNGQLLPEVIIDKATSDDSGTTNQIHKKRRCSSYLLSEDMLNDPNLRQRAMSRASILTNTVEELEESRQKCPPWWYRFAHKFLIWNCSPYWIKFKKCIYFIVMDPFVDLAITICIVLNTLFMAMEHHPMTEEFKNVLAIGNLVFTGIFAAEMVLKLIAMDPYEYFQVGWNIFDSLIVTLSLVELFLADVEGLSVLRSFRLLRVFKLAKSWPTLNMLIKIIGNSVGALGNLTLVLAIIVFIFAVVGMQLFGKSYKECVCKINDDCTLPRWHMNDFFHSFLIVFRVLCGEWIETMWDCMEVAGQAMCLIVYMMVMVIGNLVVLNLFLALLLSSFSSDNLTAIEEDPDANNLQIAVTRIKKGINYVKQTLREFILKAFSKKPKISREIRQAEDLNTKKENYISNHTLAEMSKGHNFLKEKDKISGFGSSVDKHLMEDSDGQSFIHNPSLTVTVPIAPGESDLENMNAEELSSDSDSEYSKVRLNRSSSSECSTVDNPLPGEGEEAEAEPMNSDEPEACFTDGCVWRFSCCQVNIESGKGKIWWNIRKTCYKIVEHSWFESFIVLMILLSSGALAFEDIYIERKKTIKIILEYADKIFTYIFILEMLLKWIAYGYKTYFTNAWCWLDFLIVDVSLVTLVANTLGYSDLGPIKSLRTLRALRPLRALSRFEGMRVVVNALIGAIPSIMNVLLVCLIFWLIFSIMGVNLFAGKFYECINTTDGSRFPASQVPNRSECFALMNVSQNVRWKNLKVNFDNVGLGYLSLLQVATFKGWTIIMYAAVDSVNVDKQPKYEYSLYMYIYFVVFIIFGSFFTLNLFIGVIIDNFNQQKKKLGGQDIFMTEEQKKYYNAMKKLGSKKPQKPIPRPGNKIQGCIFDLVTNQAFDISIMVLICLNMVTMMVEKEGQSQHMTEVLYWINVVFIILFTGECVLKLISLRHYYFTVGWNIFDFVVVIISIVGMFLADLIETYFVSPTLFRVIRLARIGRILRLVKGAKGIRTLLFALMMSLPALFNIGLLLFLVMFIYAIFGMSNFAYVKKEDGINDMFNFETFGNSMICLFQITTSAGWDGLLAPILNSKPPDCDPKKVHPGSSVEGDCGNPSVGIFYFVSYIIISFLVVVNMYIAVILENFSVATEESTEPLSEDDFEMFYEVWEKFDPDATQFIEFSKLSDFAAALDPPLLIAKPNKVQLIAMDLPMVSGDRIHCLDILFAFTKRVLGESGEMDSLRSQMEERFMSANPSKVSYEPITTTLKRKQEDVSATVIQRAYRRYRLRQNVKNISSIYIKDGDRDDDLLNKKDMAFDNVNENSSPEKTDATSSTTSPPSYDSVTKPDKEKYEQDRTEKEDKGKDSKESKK
Chain of hNav1.7 (Q07699 whole entry partner, looked up): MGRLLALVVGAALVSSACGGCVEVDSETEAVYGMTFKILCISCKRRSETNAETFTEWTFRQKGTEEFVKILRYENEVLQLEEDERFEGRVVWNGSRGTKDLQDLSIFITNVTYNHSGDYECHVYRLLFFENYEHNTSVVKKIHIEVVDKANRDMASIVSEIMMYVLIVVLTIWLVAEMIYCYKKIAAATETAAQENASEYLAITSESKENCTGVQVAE

SMILES	IC50
CN(C)S(=O)(=O)NC(=O)c1cc(Cl)c(OCC2CCCCC2)cc1F	322 nM
CN(C)S(=O)(=O)NC(=O)c1cc(Cl)c(OCC2CCCC2)cc1F	672 nM
CS(=O)(=O)NC(=O)c1cc(Cl)c(OCC2(C(F)(F)F)CC2)cc1F	603 nM
CS(=O)(=O)NC(=O)c1cc(Cl)c(OC[C@H]2CC[C@H](C(F)(F)F)CC2)cc1F	158 nM
COc1ncccc1-c1cc(C(=O)NS(C)(=O)=O)ccc1OCC12CC3CC(CC(C3)C1)C2	803 nM
CS(=O)(=O)NC(=O)c1cc(Cl)c(COc2ccc3c(c2)CCCC3)cc1F	86 nM
CC1(C)C(COc2ccc(C(=O)NS(C)(=O)=O)cc2Cl)C1(C)C	181 nM
CC1(C)[C@H]2CC=C(COc3cc(F)c(C(=O)NS(C)(=O)=O)cc3Cl)[C@@H]1C2	117 nM
CS(=O)(=O)NC(=O)c1cc(Cl)c(O[C@@H]2C[C@@H]3CC[C@H]2C3)cc1F	167 nM
CC1(C)[C@H]2CC[C@](C)(C2)[C@H]1Oc1cc(F)c(C(=O)NS(C)(=O)=O)cc1Cl	7120 nM
CC(C)[C@H]1CC[C@H](C)C[C@@H]1Oc1cc(F)c(C(=O)NS(C)(=O)=O)cc1Cl	1320 nM
CS(=O)(=O)NC(=O)c1cc(Cl)c(OC2CC3CCC2C3)cc1F (stereo not drawn)	491 nM
CS(=O)(=O)NC(=O)c1cc(Cl)c(OC2CC3CC2C2CCCC32)cc1F (stereo not drawn)	205 nM
CC1(C)CCCC(Oc2cc(F)c(C(=O)NS(C)(=O)=O)cc2Cl)C1 (stereo not drawn)	93 nM
CC1(C)CCC(Oc2cc(F)c(C(=O)NS(C)(=O)=O)cc2Cl)CC1	166 nM
CN(C)S(=O)(=O)NC(=O)c1cc(Cl)c(O[C@@H]2C[C@@H]3CC[C@@]2(C)C3(C)C)cc1F	230 nM
CN(C)S(=O)(=O)NC(=O)c1cc(Cl)c(OC2C3CC4CC2CC(Cl)(C4)C3)cc1F (stereo not drawn) [listing 1 of 2 here]	283 nM
CN(C)S(=O)(=O)NC(=O)c1cc(Cl)c(OCCC2CCCC2)cc1F	542 nM
CC(C)[C@H]1CC[C@H](Oc2cc(F)c(C(=O)NS(=O)(=O)N(C)C)cc2Cl)CC1	138 nM
CN(C)S(=O)(=O)NC(=O)c1cc(Cl)c(OC2C3CC4CC2CC(Cl)(C4)C3)cc1F (stereo not drawn) [listing 2 of 2 here]	419 nM

SMILES	IC50
CN(C)S(=O)(=O)NC(=O)c1cc(Cl)c(OCCC2CCCCCC2)cc1F	210 nM
CN(C)S(=O)(=O)NC(=O)c1cc(Cl)c(OCCCC2CCCCC2)cc1F	295 nM
CN(C)S(=O)(=O)NC(=O)c1cc(Cl)c(OC2CCC3(CCCCC3)CC2)cc1F	281 nM
CN(C)S(=O)(=O)NC(=O)c1cc(Cl)c(OC2CCC3(CCCC3)CC2)cc1F	273 nM
CN(C)S(=O)(=O)NC(=O)c1cc(Cl)c(OC2CCC(C(F)(F)F)CC2)cc1F (stereo not drawn)	3520 nM
CN(C)S(=O)(=O)NC(=O)c1cc(Cl)c(OCCCC2CCCC2)cc1F	300 nM
CN(C)S(=O)(=O)NC(=O)c1cc(Cl)c(OCCC23CC4CC(CC(C4)C2)C3)cc1F	166 nM
CS(=O)(=O)NC(=O)c1cc(Cl)c(OCC23CC4CC(CC(F)(C4)C2)C3)cc1F	120 nM
CS(=O)(=O)NC(=O)c1ccc(OCC23CC4CC(CC(F)(C4)C2)C3)cc1F	1640 nM
CS(=O)(=O)NC(=O)c1ccc(OCC2CCC3(CC2)CC3)cc1F	152 nM
CS(=O)(=O)NC(=O)c1cc(Cl)c(O[C@H]2C3CC4CC2C[C@](F)(C4)C3)cc1F	120 nM
CNS(=O)(=O)NC(=O)c1ccc(C2C3CC4CC(C3)CC2C4)c(Cl)c1 (stereo not drawn)	1700 nM
CS(=O)(=O)NC(=O)c1cnc(OCC23CC4(F)CC(F)(CC(F)(C4)C2)C3)c(Cl)c1	21500 nM
COCCS(=O)(=O)NC(=O)c1cc(Cl)c(OCC2(C#N)C3CC4CC(C3)CC2C4)cc1F (stereo not drawn)	990 nM
CNS(=O)(=O)NC(=O)c1cc(Cl)c(OCC2(C#N)C3CC4CC(C3)CC2C4)cc1F (stereo not drawn)	880 nM
CS(=O)(=O)NC(=O)c1cc(Cl)c(OCC2(C#N)C3CC4CC(C3)CC2C4)cc1F (stereo not drawn)	310 nM
CS(=O)(=O)NC(=O)c1cc(Cl)c(OCC23CC4CC(CC(C4)C2)C3)c(Cl)c1	540 nM
O=C(NS(=O)(=O)N1CC[C@H](O)C1)c1cc(C2CC2)c(OCC2CCCCC2)cc1F	160 nM
O=C(NS(=O)(=O)N1CCC2(CC1)COC2)c1cc(C2CC2)c(OCC23CC4CC(CC(C4)C2)C3)cc1F	630 nM
CS(=O)(=O)NC(=O)c1cc(Cl)c(OCC2CCC(F)(F)CC2)cc1F	558 nM

Now those with a lower IC50, led by results:

IC50	SMILES
53 nM	CS(=O)(=O)NC(=O)c1cc(Cl)c(OCC23CC4CC(CC(Cl)(C4)C2)C3)cc1F
44 nM	CC1(C)[C@H]2CC[C@@H](COc3cc(F)c(C(=O)NS(C)(=O)=O)cc3Cl)[C@@H]1C2
17 nM	CS(=O)(=O)NC(=O)c1cc(Cl)c(OCC2C3CC4CC(C3)CC2C4)cc1F (stereo not drawn)
80 nM	CS(=O)(=O)NC(=O)c1cc(Cl)c(OCC2CC3CCC2C3)cc1F (stereo not drawn)
44 nM	CS(=O)(=O)NC(=O)c1cc(Cl)c(OCC2CCCCCC2)cc1F
9 nM	CCCCCC12CCC(COc3cc(F)c(C(=O)NS(C)(=O)=O)cc3Cl)(CC1)CC2
57 nM	CC(C)[C@H]1CC[C@H](Oc2cc(F)c(C(=O)NS(C)(=O)=O)cc2Cl)CC1
67 nM	CS(=O)(=O)NC(=O)c1cc(Cl)c(OC2CCC3(CCCCC3)CC2)cc1F
27 nM	CS(=O)(=O)NC(=O)c1cc(Cl)c(OCC23CC4CC(C2)C(F)(F)C(C4)C3)cc1F
3 nM	CS(=O)(=O)NC(=O)c1cc(C2CC2)c(OCC23CC4CC(CC(F)(C4)C2)C3)cc1F
12 nM	COC12CC3CC(CC(COc4cc(F)c(C(=O)NS(C)(=O)=O)cc4C4CC4)(C3)C1)C2
2 nM	CS(=O)(=O)NC(=O)c1cc(C2CC2)c(OCC2CCC3(CC2)CC3)cc1F
10 nM	Cc1cc(C(=O)NS(=O)(=O)N2CCC2)c(F)cc1OCC12CC3CC(CC(C3)C1)C2
1 nM	CCS(=O)(=O)NC(=O)c1cc(C2CC2)c(OCC23CC4CC(CC(C4)C2)C3)cc1F
3 nM	CC(C)(C)S(=O)(=O)NC(=O)c1cc(C2CC2)c(OCC23CC4CC(CC(C4)C2)C3)cc1F
12 nM	COCCNS(=O)(=O)NC(=O)c1cc(C2CC2)c(OCC23CC4CC(CC(C4)C2)C3)cc1F
70 nM	O=C(NS(=O)(=O)N1CCC1)c1cc(C2(O)COC2)c(OCC23CC4CC(CC(C4)C2)C3)cc1F
4 nM	CS(=O)(=O)NC(=O)c1cc(C2CC2)c(OCC2(F)C3CC4CC(C3)CC2C4)cc1F (stereo not drawn)
12 nM	CNS(=O)(=O)NC(=O)c1cc(C2CC2)c(OCC2CCCCC2)cc1F

IC50	SMILES
3.1 nM	CS(=O)(=O)NC(=O)c1cc(C2CC2)c(OCC2C3CC4CC(C3)CC2C4)cc1F (stereo not drawn)
5 nM	COCCS(=O)(=O)NC(=O)c1cc(C2CC2)c(OCC2C3CC4CC(C3)CC2C4)cc1F (stereo not drawn)
66 nM	O=C(NS(=O)(=O)CCO)c1cc(C2CC2)c(OCC2CCCCC2)cc1F
8 nM	CS(=O)(=O)NC(=O)c1cc(I)c(OCC23CC4CC(CC(C4)C2)C3)cc1F
12 nM	CCOCCS(=O)(=O)NC(=O)c1cc(C2CC2)c(OCC23CC4CC(CC(C4)C2)C3)cc1F
22 nM	COCCCS(=O)(=O)NC(=O)c1cc(C2CC2)c(OCC23CC4CC(CC(C4)C2)C3)cc1F
40 nM	CC(C)OCCS(=O)(=O)NC(=O)c1cc(C2CC2)c(OCC23CC4CC(CC(C4)C2)C3)cc1F
12 nM	N#CC1CN(S(=O)(=O)NC(=O)c2cc(C3CC3)c(OCC34CC5CC(CC(C5)C3)C4)cc2F)C1
22 nM	CS(=O)(=O)NC(=O)c1cc(C2CC2)c(OCC2(C#N)C3CC4CC(C3)CC2C4)cc1F (stereo not drawn)
12 nM	CC(O)c1cc(C(=O)NS(=O)(=O)N2CCC2)c(F)cc1OCC12CC3CC(CC(C3)C1)C2 (stereo not drawn)
16 nM	O=C(NS(=O)(=O)N1CCOCC1)c1cc(C2CC2)c(O[C@H]2C3CC4CC2C[C@](Cl)(C4)C3)cc1F
43 nM	CNS(=O)(=O)NC(=O)c1cc(C2CC2)c(OCC2(C#N)C3CC4CC(C3)CC2C4)cc1F (stereo not drawn)
60 nM	CC(=O)c1cc(C(=O)NS(=O)(=O)N2CCC2)c(F)cc1OCC12CC3CC(CC(C3)C1)C2
30 nM	COCCS(=O)(=O)NC(=O)c1cc(C2CC2)c(OCC2(C(F)(F)F)CCCCC2)cc1F
36 nM	O=C(NS(=O)(=O)N1CCC1)c1cc(C2CC2)c(OCC2CCCC2)cc1F
80 nM	O=C(NS(=O)(=O)N1CCC1)c1cc(C2CC2)c(OCC23CC4CC(CC(CO)(C4)C2)C3)cc1F
30 nM	O=C(NS(=O)(=O)N1CCC1)c1cc(Cl)c(OCC2(C(F)(F)F)CCCC2)cc1F
17 nM	CS(=O)(=O)NC(=O)c1cc(Cl)c(OCC2CCC3(CCC3)CC2)cc1F
51 nM	CN(C)S(=O)(=O)NC(=O)c1cc(Cl)c(OCC2C3CC4CC(C3)CC2C4)cc1F (stereo not drawn)
